From patent publication US7964732B2, “Substituted bicyclocarboxyamide compounds” (Pfizer Inc., priority 2006, dated 2011)

Columns and labels:
human VR1 [1] = biological target: T1, human VR1 (Homo sapiens, UniProt Q8NER1); assay: Determination of pA2 values against capsaicin stimulation (Ca2+ imaging, FLIPR TETRA, Schild analysis); type: cell-based; details: against capsaicin agonist dose-response
T1 construct: host or cells: cells that express human VR1 receptors (cell type not specified)
Procedure: pA2 values of antagonists against the capsaicin agonist dose-response were determined using a Ca^2+ imaging assay with cells expressing high levels of human VR1 (for explanation of theory behind pA2 determinations, see A Pharmacological Primer: Theory, Applications, and Methods 2nd edition by Terry P. Kenakin, pp. 102-108, Academic Press, New York, 2006). Cells that express high levels of VR1 were obtained by generation of a cell line from […] with heterologous expression of VR1 under control of an inducible promoter. Specifically, cells expressing human VR1 under the control of the human cytomegalovirus immediate-early (CMV) promoter and two tetracycline operator 2 (TetO2) sites were made using the T-REx System (Invitrogen, Carlsbad, Calif., USA). Details and methods concerning this system are published (Hum. Gene Ther. 9, pp. 1939-1950, 1998; Annu. Rev. Microbiol. 48, pp. 345-369, 1994; Mol. Biol. 169, pp. 707-721, 1983). VR1 was subcloned into the T-REx System pcDNA5/TO vector (Invitrogen Cat# V1033-20) which was transfected into the T-REx System […] cell line (Invitrogen Cat# R710-07) from which a stable cell line was established which express VR1 after induction by exposure to tetracycline or doxycycline (Hum. Gene Ther. 9, pp. 1939-1950, 1998; instructions that come with purchase of products noted above). […]
For assay preparation, cells expressing human VR1 as described above were plated in 96-well plates (Becton Dickinson [BD] poly-D-lysine coated 96-well plates, cat#356692) at 55,000 cells per well in culture media (described above) that also contains 1 ug/ml doxycycline. […] Changes in the fluorescence signal (λex=470-495 nm, λem=515-575 nm) were monitored throughout the experiment before agonist addition and for at least 2 min after agonist addition (enough time for the fluorescence response to reach and then decline from the absolute maximum, agonist-induced signal attained). […]

human VR1 [2] = biological target: T1, human VR1; assay: Human VR1 antagonist assay (Ca2+ imaging assay using human VR1 highly expressing cells); type: cell-based; details: intracellular Ca2+ imaging (fura-2)
Description: VR1 antagonistic activity can be determined by the Ca^2+ imaging assay using human VR1 highly expressing cells. The cells that highly express human VR1 receptors are obtainable from several different conventional methods. The one standard method is cloning from human Dorsal Root Ganglion (DRG) or kidney according to the methods such as described in the journal article; Nature, 389, pp 816-824, 1997. Alternatively VR1 receptors highly expressing human keratinocytes are also known and published in the journal article (Biochemical and Biophysical Research Communications, 291, pp 124-129, 2002). […] Furthermore, the method to up regulate human VR1 gene, which is usually a silent gene or don't produce detectable level of VR1 receptors, is also available to obtain propriety cells. Such genetic modification method was described in detail; Nat. Biotechnol., 19, pp 440-445, 2001.
The cells that express human VR1 receptors were maintained in culture flask at 37° C. in an environment containing 5% CO2 until use in the assay. The intracellular Ca^2+ imaging assay to determine VR1 antagonistic activities were done by following procedures.
The culture medium was removed from the flask and fura-2/AM fluorescent calcium indicator was added to the flask at a concentration of 5 μM in the medium. The flask was placed in CO2 incubator and incubated for 1 hour. Then the cells expressing the human VR1 receptors were detached from the flask follow by washing with phosphate buffer saline, PBS(−) and re-suspended in assay buffer. The 80 μl of aliquot of cell suspension (3.75×10^5 cells/ml) was added to the assay plate and the cells were spun down by centrifuge (950 rpm, 20° C., 3 minutes).
Compounds of the examples were tested in the Human VR1 antagonist assay described above.
The capsaicin-induced changes in the intracellular calcium concentration were monitored using FDSS 6000 (Hamamatsu Photonics, Japan), a fluorometric imaging system. The cell suspension in Krebs-Ringer HEPES (KRH) buffer (115 mM NaCl, 5.4 mM KCl, 1 mM MgSO4, 1.8 mM CaCl2, 11 mM D-Glucose, 25 mM HEPES, 0.96 mM Na2HPO4, pH 7.3) were pre-incubated with varying concentrations of the test compounds or KRH buffer (buffer control) for 15 minutes at room temperature under the dark condition. Then capsaicin solution, which gives 300 nM in assay mixture, was automatically added to the assay plate by the FDSS 6000.
The Acid-induced changes in the intracellular calcium concentration were monitored using FDSS 6000 (Hamamatsu Photonics, Japan), a fluorometric imaging system. The cell suspension in resting buffer (HBSS supplemented with 10 mM HEPES, pH 7.4) were pre-incubated with varying concentrations of the test compounds or resting buffer (buffer control) for 15 minutes at room temperature under the dark condition. The cells were automatically added the stimulating solution (HBSS supplemented with MES, final assay buffer pH5.8) by the FDSS 6000.
The monitoring of the changes in the fluorescence signals (λex=340 nm/380 nm, λem=510-520 nm) was initiated at 1 minute prior to the addition of capsaicin solution or acidic buffer and continued for 5 minute.

T1 sequence (Q8NER1 whole entry): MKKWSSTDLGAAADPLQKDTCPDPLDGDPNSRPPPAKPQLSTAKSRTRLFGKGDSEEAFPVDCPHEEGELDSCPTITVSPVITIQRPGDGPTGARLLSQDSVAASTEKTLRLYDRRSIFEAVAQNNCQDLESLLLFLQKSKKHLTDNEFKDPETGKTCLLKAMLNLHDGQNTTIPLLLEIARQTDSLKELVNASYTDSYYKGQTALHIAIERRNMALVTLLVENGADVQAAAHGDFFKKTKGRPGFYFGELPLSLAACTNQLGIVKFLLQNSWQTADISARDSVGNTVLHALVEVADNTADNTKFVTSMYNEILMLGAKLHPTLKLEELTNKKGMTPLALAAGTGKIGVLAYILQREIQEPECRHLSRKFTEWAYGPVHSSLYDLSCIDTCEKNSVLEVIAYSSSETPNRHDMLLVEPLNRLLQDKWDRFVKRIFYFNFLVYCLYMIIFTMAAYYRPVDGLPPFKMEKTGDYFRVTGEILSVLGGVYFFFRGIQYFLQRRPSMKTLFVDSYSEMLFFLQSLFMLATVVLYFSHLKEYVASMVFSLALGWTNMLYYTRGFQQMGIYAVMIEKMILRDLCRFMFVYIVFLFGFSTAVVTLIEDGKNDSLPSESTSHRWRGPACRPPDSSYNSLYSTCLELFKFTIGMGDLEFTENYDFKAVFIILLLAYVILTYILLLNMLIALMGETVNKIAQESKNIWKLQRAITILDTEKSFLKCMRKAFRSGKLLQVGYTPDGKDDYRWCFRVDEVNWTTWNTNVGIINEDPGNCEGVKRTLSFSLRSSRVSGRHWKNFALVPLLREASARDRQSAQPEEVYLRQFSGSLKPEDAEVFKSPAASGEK

Kb (human VR1 [1]; pre-incubation 2 mins) [nM] | IC50 (human VR1 [2]) [nM] | Kb (human VR1 [1]; pre-incubation 30 mins) [nM] | SMILES
1.74 | 25.2 | – | Cc1c([C@@H](C)NC(=O)c2ccc3nc(C(C)(C)C(F)(F)F)ccc3c2)cnn1C [Example 1]
1.86 | 26.6 | – | Cc1c([C@@H](C)NC(=O)c2ccc3nc(C(C)(C)C(F)(F)F)ccc3c2)cnn1CC(F)(F)F [Example 6, N-((1R)-1-(5-methyl-1-(2,2,2-trifluoroethyl)-1H-pyrazol-4-yl)ethyl)-2-(2,2,2-trifluoro-1,1-dimethylethyl)quinoline-6-carboxamide]
– | 18 | 5.25 | C[C@H](NC(=O)c1ccc2nc(C(C)(C)C(F)(F)F)ccc2c1)c1cnn(C)c1Cl [Example 18]
